From patent US6649628B1, “N-[2-hydroxy-3-(1-piperidinyl)propoxy]pyridine-1-oxide-3-carboximidoyl chloride and its use in the treatment of insulin resistance” (Biorex Kutato es Fejleszto RT, priority 1999, dated 2003)
Read-outs that look alike come from different tables or passages of the source.

What was measured:
[1] = test system: high fat (HF) diet insulin resistant male Wistar rats; assay: Experiment 8: in vivo insulin-dependent glucose uptake (euglycaemic glucose clamp) in dietary induced insulin resistance; conditions: for effect on fasting blood glucose levels: 20 mg/kg daily, 3 weeks; for in vivo insulin mediated glucose uptake (glucose infusion rate, GIR): 20 mg/kg/day for 3 weeks, euglycaemic glucose clamp, insulin infusion 6.4 mU/kg/min
Protocol: Male Wistar rats (Charles River Laboratories Inc.) with an initial body weight of 300-350 g were used in the experiments.
Insulin resistance was induced by dietary manipulation: animals were given a high fat (HF) diet for 3 weeks. In the HF diet the proportion of saturated fats were dominant and gave 70% of total daily caloric intake.
Briefly: the fasting blood glucose concentration in different animal groups must be identical. Experiments were carried out in conscious, freely moving, chronicly canulated rats: first an insulin infusion (6.4 mU/kg/min) was started, followed by a parallel-run continuous glucose infusion to maintain blood glucose concentrations in the euglycaemic range. After stabilisation the quantity of infused glucose was measured for a 90 min. period (glucose infusion rate=GIR, mg/kg/min) which is the quantitative parameter of insulin sensitivity.

STZ-diabetic Wistar rats [2] = assay: Experiment 6: Compound-A and enantiomers, nerve conduction velocity after 1 month treatment; conditions: for MNCV / MNCV improvement / SNCV / SNCV improvement: 5 mg/kg daily, 1 month; for effect on motor (MNCV) and sensory (SNCV) nerve conduction velocity deficits: Compound-A 10 mg/kg, enantiomers 5 mg/kg daily
Protocol: In the experiments, male Wistar rats were used (Charles River Laboratories Inc.). At the start of the experiment, their weights were 340-370 g. Diabetes was induced by the intravenous administration of a single 45 mg/kg dose of streptozotocine (STZ, Sigma, St. Louis, Mo.) dissolved in physiological saline solution. The development of diabetes was checked after 1 day by a blood glucose test, accepting a value over 15 mmol/l.
The test and reference substances were administered p.os to the animals once a day.
For the determination of nerve conduction velocity (NCV), the method of Stanley, modified by De Konig and Gispen was used. The animals were anesthetized by the simultaneous administration of Hyponorm (1 mg/kg ip., Janssen, Tilburg, Denmark), fluanisone (10 mg/ml), and phentanyl citrate (0.2 mg/ml). Afterwards, the left ischiadicus and tibial nerves were stimulated at standard points. Supramaximal stimulus (square impulse, 0.03 ms) was used with a platinum needle electrode, through a Nihon-Kohden (model SEN-1104, Japan) stimulator. The electromyogram (EMG) transferred from the sole muscles and intensified by a myograph (Elema-Schonander, Stockholm, Sweden) was analyzed further by the Matlab for Windows (Mathwork Inc, UK) program. The extent of NCV damage caused by diabetes was expressed in m/s. The effectiveness of the treatment was compared to this in terms of percentage (%). The statistical calculations were done by unpaired t-test or single-criterion ANOVA test (along with the Newman-Keuls post hoc test).

STZ-diabetic rats = conditions: 2 month; for Scores lenticular + retinal improvement % / Scores lenticular + retinal mean ± SE / Scores retinal improvement % / Scores retinal mean ± SE: 5 mg/kg daily; for effect on lenticular and retinal pathologic histological alterations / effect on retinal histological alterations only: Compound-A 10 mg/kg, enantiomers 5 mg/kg daily
Protocol: After anesthesia (Calypsovet, 125 mg/kg. Ip., Richter Rt., Hungary), the eyes were enucleated and fixed in 4% formaldehyde dissolved in a phosphate buffer (pH:7.4).
Afterwards, they were embedded in paraffin (Medim DDM P800, embedding center: Lignifer L-120-92-014, stainer: Shandon Eliott, Microtome: is Leica SM 2000 R, Microscope: Jenaval Karl Zeiss Jena). Several 6 micron sections of the eyes were prepared, and hematoxilyn/eosine (Fluka) and PAS (periodic acid-Schiff, Fluka) staining were used. The light-microscopic evaluation was performed at a magnification of 40× and 100×. Photographs and slide positives were prepared of representative samples.
The histological evaluation was performed on coded samples, the group division was unknown for the examiner. Pathological deviations of the retina were graded on a scale of 0-20, while those of the lens on a scale of 0-3.
The statistical calculations were done with the Statistica 4.5 (SatSoft, USA) program. The given value for negative cases was 0.1. A Box and Whisker plot graph was also prepared.
For each group in the experiment, the mean±SE (Standard Error) values were calculated, and the comparison was done with the help of a non-parametric Mann-Whitney U-test (Graphpad Instat, San Diego, Calif.).

STZ-diabetic Wistar rats [3] = assay: Experiment 5: urinary protein loss caused by diabetic nephropathy after 1-month treatment; assay type: in vivo, rat
Protocol: For the 24-hour period of urine collection, the animals were placed in individual metabolic cages. During this period they were given water ad libitum but no food. The latter measure was necessary to prevent possible contamination by the protein content of the food. Urine was collected in calibrated glass containers, in which Thymol crystal (Reanal 3135-1-08-38) was placed to prevent bacterial contamination.
Before measurement, the urine samples were centrifuged (2500 rpm) and filtered through a paper filter (Whatmann 1). If necessary, they were stored at −20° C. until measurement.
The total protein content of the urine was determined by the Bradford staining method (Sigma B-6916, St. Louis, Mo.), and color intensity was detected by spectrophotometry (Hitachi-U-3200).

STZ-diabetic Wistar rats [4] = test system: STZ-diabetic Wistar rats
From the text: The experiments were accomplished on Wistar rats with a body weight of 320-350 g. Diabetes was induced and checked as described in Experiment 2. In the test animals having been diabetic for 3 weeks the left nervus ischidiacus was injured by freezing and the right side one was used as non-injured control. The regeneration was observed by monitoring the signals of the flexor reflex provoked by irritation of the sole that is areas under curve (AUC) of the electromyogram transferred from the forward tibial muscle. For the stimulation and detection the system described in Experiment 2 was used. Single daily doses of 10 mg/kg of Compound-A and 5 mg/kg of A(+) enantiomer were administred for 5 weeks after the injury by freezing.

[5] = test system: Zucker Diabetic Fatty (ZDF) rats; conditions: for Fed serum glucose concentrations: 2 × 20 mg/kg/day
Protocol: A genetically diabetic animal model was selected and the Zucker Diabetic Fatty (ZDF) rats were used in the experiments. This model is the diabetic variant of the insulin resistant, obese but non-diabetic Zucker fa/fa animal model (see Experiment 1). In the ZDF rats diabetes developed at the age of 6-8 weeks preceded by an insulin resistant phase.
The effect of (A+) enantiomer was investigated in a treatment with a dose of 2×20 mg/kg/day started in the non-diabetic phase, at the age of 7 weeks and continued for 6 weeks.
Clinical chemistry parameters were measured by standard methods. The serum insulin concentrations were measured by a recently developed method (ELISA method, DRG lnternational,Inc., U.S.A.).

Compound | effect on fasting blood glucose levels [1] | in vivo insulin mediated glucose uptake (glucose infusion rate, GIR) [1] [mg/kg/min] | MNCV (STZ-diabetic Wistar rats [2]) [m/s] | MNCV improvement (STZ-diabetic Wistar rats [2]) [%] | SNCV (STZ-diabetic Wistar rats [2]) [m/s] | SNCV improvement (STZ-diabetic Wistar rats [2]) [%] | effect on motor (MNCV) and sensory (SNCV) nerve conduction velocity deficits (STZ-diabetic Wistar rats [2]) | Scores lenticular + retinal improvement % (STZ-diabetic rats) [%] | Scores lenticular + retinal mean ± SE (STZ-diabetic rats) | Scores retinal improvement % (STZ-diabetic rats) [%] | Scores retinal mean ± SE (STZ-diabetic rats) | effect on lenticular and retinal pathologic histological alterations (STZ-diabetic rats) | effect on retinal histological alterations only (STZ-diabetic rats) | further results
O=C(O)/C=C\C(=O)O.[O-][n+]1cccc(C(Cl)=NOC[C@@H](O)CN2CCCCC2)c1 [A(−), (−)-/S/-N-[2-hydroxy-3-(1-piperidinyl)-propoxy]-pyridine-1-oxide-3-carboximidoyl chloride (Z)-2-butenedioate (1:1)] | did not affect | 19.7 ± 1.38 | 53.1 ± 0.7 | 39.4 | 54.1 ± 0.9 | 34.9 | did not have significant improving effect | 10.3 | 6.02 ± 1.09 | 21.7 | 3.53 ± 1.07 | not effective | not significant | –
O=C(O)/C=C\C(=O)O.[O-][n+]1cccc(C(Cl)=NOC[C@H](O)CN2CCCCC2)c1 [A(+), (+)-/R/-N-[2-hydroxy-3-(1-piperidinyl)-propoxy]-pyridine-1-oxide-3-carboximidoyl chloride (Z)-2-butenedioate (1:1)] | did not affect | 20.5 ± 0.89 | 56.1 ± 0.5 | 71.3 | 59.7 ± 0.5 | 68.5 | significantly improved | 42.9 | 4.05 ± 0.80 | 68.9 | 1.68 ± 0.63 | significantly improved | effective | 24-hour Urinary Protein Loss Mean ± SE (STZ-diabetic Wistar rats [3]; 5 mg/kg daily, 1 month, series 2): 5.61 ± 1.08 mg/24 h; effect on STZ-diabetes-induced urinary protein loss (STZ-diabetic Wistar rats [3]; Bimoclomol 20 mg/kg, Compound-A 10 mg/kg, (+) enantiomer 5 mg/kg daily): significantly reduced; neuroregeneration of the non-freezed nerves (STZ-diabetic Wistar rats [4]; 5 mg/kg daily for 5 weeks): 83%; neuroregenerative effect (STZ-diabetic Wistar rats [4]; 5 mg/kg daily for 5 weeks): strong neuroregenerative effect; extent of neuroregeneration of the nerve injured by freezing (STZ-diabetic Wistar rats [4]; 5 mg/kg daily for 5 weeks after injury, 5. week, untreated 63%): 93%; antidiabetic activity in diabetic animals ([5]; 2×20 mg/kg/day): strong antidiabetic activity; normalization of blood glucose concentrations ([5]; 2×20 mg/kg/day): did not normalize; Fed serum glucose concentrations ([5]; 3 weeks): 10.82 ± 1.36 mmol/L; Fed serum glucose concentrations ([5]; 5 weeks): 13.25 ± 0.76 mmol/L
